Laboratory results reported in publication doi:10.1101/2025.03.31.646301v1, “Discovery of Tankyrase scaffolding inhibitor specifically targeting the ARC4 peptide binding domain” (biorxiv, 2025).
Like-named read-outs stand apart in the source and are kept apart here.

Key:
TNKS2 ARC4 [1] = target: T1, TNKS2 ARC4 (Homo sapiens, UniProt Q9H2K2); set-up: DSF thermal shift of TNKS2 ARC4, stabilization over DMSO control; conditions: binder
T1 construct: ankyrin repeat cluster 4 domain; FRET: 6xHis-mCerulean (CFP) fusion; DSF, NMR, crystal: MBP and His tag cleaved by TEV, residues 487-649 printed for crystal; E. coli BL21(DE3)
T1 sequence (Q9H2K2 487-649): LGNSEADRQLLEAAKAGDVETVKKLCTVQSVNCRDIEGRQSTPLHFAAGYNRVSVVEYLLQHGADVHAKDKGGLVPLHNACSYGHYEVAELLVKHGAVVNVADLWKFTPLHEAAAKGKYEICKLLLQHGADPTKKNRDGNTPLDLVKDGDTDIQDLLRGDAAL
Text: Given the notable stabilization of the pyrrolone-based compounds from the Commercials Diversity collection, we decided to focus on their common scaffold for compound optimization. Pyrrolone is indeed a versatile moiety that is largely employed for the design of compounds with a variety of biological effects.[55] The nine primary hits were acquired from commercial suppliers, they underwent quality control, additional DSF validation and determination of potency through FRET-based IC50 measurements (Table 1). All the tested compounds include a benzodioxane moiety (R[1]), a [compound left out] group with substitutions in the para position (R[2]), and an R[3] group with an aliphatic character and a tertiary amine. […] In addition, all molecules, except for 7, have IC50 values below 100 µM. Among the nine molecules, 1 performed the best in terms of stabilization of TNKS2 ARC4 and potency. […] In the same position, the presence of a hydrophobic methyl group (3, 4), other halogen substituents (5) and alkoxy groups (6–9) is also tolerated, even if not optimal. […] A SAR investigation was conducted with purchased and synthesized analogues of 1 through FRET-based potency measurements and DSF assay with TNKS2 ARC4 (Table 2, Table S2). All the compounds commercially acquired underwent quality control. […] Changes to the length of the aliphatic chain at R[3] greatly impacts both potency and protein stabilization. […] The diethylamino-based substituent at R[3] […] Compounds 25 and 26 further indicate that the presence of tertiary amine at R[3] is not necessary to achieve binding. […] 5 Figure S2. DSF assay results for validation of primary hits identified in the EU-OPENSCREEN Commercials Diversity Library. (A) and (B) show DSF assay validation measurements of TNKS2 ARC4 with primary hits from the Commercial Diversity Library. Compounds are tested at 100 μM. They are named after their EU-OPENSCREEN identity codes and the identities are available for consultation on ECBD. 1,2 (A) and (B) show results from two independent experiments. For each experiment, each compound was tested with a single measurement, while controls (TNKS2 ARC4 with 100 μM optimized peptide, TNKS2 ARC4 with 100 μM DMSO) are studied in at least four replicates and errors are shown. Moreover, stabilization over the control (TNKS2 ARC4 with DMSO) is indicated (ΔTm °C). […] It was not possible to measure the melting curve of TNKS2 ARC4 in presence of EOS21552, EOS54043, EOS54043.

TNKS2 ARC4 [2] = target: T1, TNKS2 ARC4; test: FRET displacement of YFP-REAGDGEE peptide from CFP-ARC; type: binding

Row | Compound | ΔTm ± SD (°C) (TNKS2 ARC4 [1]) | IC50 (TNKS2 ARC4 [2]) [µM] | IC50 (TNKS2 ARC4 [2]; pH 7, 100 nM CFP-ARC, 200 nM YFP-peptide, TBM pocket) [µM]
1 | CCN(CC)CCCN1C(=O)C(O)=C(C(=O)c2ccc3c(c2)OCCO3)C1c1ccc(C)cc1 (stereo not drawn) [compound 20] | 3.43 ± 0.66 | – | –
2 | O=C(C1=C(O)C(=O)N(CCN2CCOCC2)C1c1ccccc1)c1ccc2c(c1)OCCO2 (stereo not drawn) [compound 23] | 0.89 ± 0.33 | – | –
3 | CCN(CC)CCCN1C(=O)C(O)=C(C(=O)c2ccc3c(c2)OCCO3)C1c1ccccc1 (stereo not drawn) [compound 21, 21] | – | 36 | –
4 | CN(C)CCCN1C(=O)C(O)=C(C(=O)c2ccc3c(c2)OCCO3)C1c1cccc(O)c1 (stereo not drawn) [compound 16, 16] | – | 31 | –
5 | CCN(CC)CCCN1C(=O)C(O)=C(C(=O)c2ccc(OC)c(OC)c2)C1c1ccc(O)cc1 (stereo not drawn) [S7] | 0.04 ± 0.03 | > 1000 | –
6 | CCN(CC)CCCCN1C(=O)C(O)=C(C(=O)c2ccc3c(c2)OCCO3)C1c1ccc(O)cc1 (stereo not drawn) [S12] | 1.97 ± 0.35 | 74 | –
7 | CCN(CC)CCCN1C(=O)C(O)=C(C(=O)c2ccc3c(c2)OCCO3)C1c1ccncc1 (stereo not drawn) [compound 24] | 2.75 ± 0.44 | – | –
8 | CCN(CC)CCCN1C(=O)C(O)=C(C(=O)c2ccc3c(c2)OCCO3)C1c1ccc(N)cc1 (stereo not drawn) [S9] | 2.78 ± 0.18 | 17 | –
9 | COc1cccc(C2C(C(=O)c3ccc4c(c3)OCCO4)=C(O)C(=O)N2CCCN2CCNCC2)c1 (stereo not drawn) [S1] | 0.69 ± 0.30 | 250 | –
10 | CCN(CC)CCCN1C(=O)C(O)=C(C(=O)c2ccc3c(c2)OCCO3)C1c1ccncc1 (stereo not drawn) [compound 24, 24] | – | 56 | –
11 | CCN(CC)CCCN1C(=O)C(O)=C(C(=O)c2ccc3c(c2)OCCO3)C1c1ccc(C)cc1 (stereo not drawn) [compound 20, 20] | – | 78 | –
12 | CN(C)CCCN1C(=O)C(O)=C(C(=O)c2ccc3c(c2)OCCO3)C1c1ccc(Br)cc1 (stereo not drawn) [compound 5, 5] | 1.49 ± 0.16 | 70 | –
13 | CN(C)CCN1C(=O)C(O)=C(C(=O)c2ccc3c(c2)OCCO3)C1c1cccc(O)c1 (stereo not drawn) [compound 17] | 0.98 ± 0.32 | – | –
14 | O=C(C1=C(O)C(=O)N(Cc2ccccc2)C1c1ccc(O)cc1)c1ccc2c(c1)OCCO2 (stereo not drawn) [compound 26, 26] | – | 30 | –
15 | CCCCOc1ccc(C2C(C(=O)c3ccc4c(c3)OCCO4)=C(O)C(=O)N2CCCN2CCOCC2)cc1 (stereo not drawn) [compound 9, 9] | 1.40 ± 0.18 | 81 | –
16 | CCN(CC)CCCN1C(=O)C(O)=C(C(=O)c2ccc3c(c2)OCCO3)C1c1ccc(N(C)C)cc1 (stereo not drawn) [compound 19, 19] | – | 10 | –
17 | O=C(C1=C(O)C(=O)N(Cc2ccccc2)C1c1ccc(O)cc1)c1ccc2c(c1)OCCO2 (stereo not drawn) [compound 26] | 0.76 ± 0.33 | – | –
18 | O=C(C1=C(O)C(=O)N(CCCN2CCOCC2)C1c1cccc(O)c1)c1ccc2c(c1)OCCO2 (stereo not drawn) [compound 18, 18] | – | 85 | –
19 | O=C(C1=C(O)C(=O)N(Cc2ccncc2)C1c1ccccc1)c1ccc2c(c1)OCCO2 (stereo not drawn) [compound 22] | 0.48 ± 0.27 | – | –
20 | CCN(CC)CCCN1C(=O)C(O)=C(C(=O)c2ccc3c(c2)OCCO3)C1c1ccccc1 (stereo not drawn) [compound 21] | 4.73 ± 0.29 | – | –
21 | O=C(C1=C(O)C(=O)N(CCc2ccccc2)C1c1ccc(O)cc1)c1ccc2c(c1)OCCO2 (stereo not drawn) [compound 25, 25] | – | 56 | –

Row | Compound | ΔTm ± SD (°C) (TNKS2 ARC4 [1]) | IC50 (TNKS2 ARC4 [2]) [µM] | IC50 (TNKS2 ARC4 [2]; pH 7, 100 nM CFP-ARC, 200 nM YFP-peptide, TBM pocket) [µM]
22 | CCN(CC)CCCN1C(=O)C(O)=C(C(=O)c2ccc3c(c2)OCCO3)C1c1cccc(O)c1 (stereo not drawn) [compound 13, 13] | 4.82 ± 0.49 | 24 | –
23 | O=C(C1=C(O)C(=O)N(CCCN2CCOCC2)C1c1cccc(O)c1)c1ccc2c(c1)OCCO2 (stereo not drawn) [compound 18] | 2.25 ± 0.48 | – | –
24 | COCCCN1C(=O)C(O)=C(C(=O)c2ccc3c(c2)OCCO3)C1c1cccc(O)c1 (stereo not drawn) [compound 15, 15] | 0.78 ± 0.43 | 368 | –
25 | O=C(C1=C(O)C(=O)N(CCc2ccccc2)C1c1ccc(O)cc1)c1ccc2c(c1)OCCO2 (stereo not drawn) [compound 25] | 1.80 ± 0.26 | – | –
26 | O=C(C1=C(O)C(=O)N(Cc2ccncc2)C1c1ccccc1)c1ccc2c(c1)OCCO2 (stereo not drawn) [compound 22, 22] | – | 325 | –
27 | CN(C)CCN1C(=O)C(O)=C(C(=O)c2ccc3c(c2)OCCO3)C1c1cccc(O)c1 (stereo not drawn) [compound 17, 17] | – | 274 | –
28 | CCN(CC)CCCN1C(=O)C(O)=C(C(=O)c2ccc3c(c2)OCCO3)C1c1ccc(F)cc1 (stereo not drawn) [compound 2, 2] | 2.38 ± 0.52 | 32 | –
29 | CCN(CC)CCCN1C(=O)C(O)=C(C(=O)c2ccc3ccccc3c2)C1c1ccc(O)cc1 (stereo not drawn) [S6] | -0.06 ± 0.04 | > 1000 | –
30 | CCN(CC)CCCN1C(=O)C(O)=C(C(=O)c2ccc(OC)c(OC)c2)C1c1cccc(O)c1 (stereo not drawn) [S11] | 0.08 ± 0.40 | – | –
31 | COc1cccc(C2C(C(=O)c3ccc4c(c3)OCCO4)=C(O)C(=O)N2CCCNC(=N)N)c1 (stereo not drawn) [S4] | 1.10 ± 0.12 | 142 | –
32 | CCN(CC)CCCN1C(=O)C(O)=C(C(=O)c2ccc(OCc3ccc(C)cc3)cc2)C1c1ccc(O)cc1 (stereo not drawn) [compound 11, 11] | 0.07 ± 0.07 | 552 | –
33 | CN(C)CCCN1C(=O)C(O)=C(C(=O)c2ccc3c(c2)OCCO3)C1c1cccc(O)c1 (stereo not drawn) [compound 16] | 2.96 ± 0.36 | – | –
34 | CCCCOc1ccc(C2C(C(=O)c3ccc4c(c3)OCCO4)=C(O)C(=O)N2CCCN(C)C)cc1 (stereo not drawn) [compound 8, 8] | 1.65 ± 0.24 | 69 | –
35 | O=C(C1=C(O)C(=O)N(CCN2CCOCC2)C1c1ccccc1)c1ccc2c(c1)OCCO2 (stereo not drawn) [compound 23, 23] | – | – | 411
36 | CCN(CC)CCCN1C(=O)C(O)=C(C(=O)c2ccc3c(c2)CC(C)O3)C1c1ccc(O)cc1 (stereo not drawn) [compound 10, 10] | 2.67 ± 0.46 | 31 | –
37 | CCN(CC)CCCN1C(=O)C(O)=C(C(=O)c2ccc3c(c2)OCCO3)C1c1ccc(N(C)C)cc1 (stereo not drawn) [compound 19] | 4.14 ± 0.12 | – | –
38 | CCOc1ccc(C2C(C(=O)c3ccc4c(c3)OCCO4)=C(O)C(=O)N2CCCN2CCOCC2)cc1 (stereo not drawn) [compound 7, 7] | 1.42 ± 0.16 | 117 | –
39 | Cc1ccc(C2C(C(=O)c3ccc4c(c3)OCCO4)=C(O)C(=O)N2CCCN(C)C)cc1 (stereo not drawn) [compound 3, 3] | 2.34 ± 0.30 | 51 | –
40 | CCN(CC)CCN1C(=O)C(O)=C(C(=O)c2ccc3c(c2)OCCO3)C1c1cccc(O)c1 (stereo not drawn) [compound 14, 14] | 1.40 ± 0.36 | 139 | –
41 | CCN(CC)CCCN1C(=O)C(O)=C(C(=O)c2ccc3c(c2)OCCO3)C1c1cccc(OC)c1 (stereo not drawn) [compound 12, 12] | 4.03 ± 0.39 | 11 | –
42 | CCN(CC)CCCN1C(=O)C(O)=C(C(=O)c2ccc(OC)c(OC)c2)C1c1ccccc1 (stereo not drawn) [S10] | -0.28 ± 0.35 | – | –
